Laboratory results from PubChem BioAssay (NCI).
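Assay format: 96-well plates, 48-hour exposure. GI50 = concentration required for 50% inhibition of growth. At the TGI there is no net growth.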

Legend:
Test in all cases: NCI tumour cell line growth inhibition, 48 h
786-0 renal = tested on: 786-0 renal
A549 NSCLC = tested on: A549 NSCLC
ACHN renal = tested on: ACHN renal
CAKI-1 renal = tested on: CAKI-1 renal
CCRF-CEM leukemia = tested on: CCRF-CEM leukemia
DLD-1 colon = tested on: DLD-1 colon
DMS 114 small cell lung = tested on: DMS 114 small cell lung
EKVX NSCLC = tested on: EKVX NSCLC
HCC-2998 colon = tested on: HCC-2998 colon
HCT-116 colon = tested on: HCT-116 colon
HCT-15 colon = tested on: HCT-15 colon
HL-60(TB) leukemia = tested on: HL-60(TB) leukemia
HOP-18 NSCLC = tested on: HOP-18 NSCLC
HOP-62 NSCLC = tested on: HOP-62 NSCLC
HOP-92 NSCLC = tested on: HOP-92 NSCLC
HT29 colon = tested on: HT29 colon
IGROV1 ovarian = tested on: IGROV1 ovarian
K-562 leukemia = tested on: K-562 leukemia
KM12 colon = tested on: KM12 colon
LOX IMVI melanoma = tested on: LOX IMVI melanoma
LXFL 529 NSCLC = tested on: LXFL 529 NSCLC
M14 melanoma = tested on: M14 melanoma
M19-MEL melanoma = tested on: M19-MEL melanoma
MALME-3M melanoma = tested on: MALME-3M melanoma
MOLT-4 leukemia = tested on: MOLT-4 leukemia
NCI-H226 lung = tested on: NCI-H226 lung
NCI-H23 lung = tested on: NCI-H23 lung
NCI-H460 lung = tested on: NCI-H460 lung
NCI-H522 lung = tested on: NCI-H522 lung
OVCAR-3 ovarian = tested on: OVCAR-3 ovarian
OVCAR-4 ovarian = tested on: OVCAR-4 ovarian
OVCAR-5 ovarian = tested on: OVCAR-5 ovarian
OVCAR-8 ovarian = tested on: OVCAR-8 ovarian
RPMI-8226 leukemia = tested on: RPMI-8226 leukemia
RXF 393 renal = tested on: RXF 393 renal
SF-268 CNS = tested on: SF-268 CNS
SF-295 CNS = tested on: SF-295 CNS
SF-539 CNS = tested on: SF-539 CNS
SK-MEL-2 melanoma = tested on: SK-MEL-2 melanoma
SK-MEL-28 melanoma = tested on: SK-MEL-28 melanoma
SK-MEL-5 melanoma = tested on: SK-MEL-5 melanoma
SK-OV-3 ovarian = tested on: SK-OV-3 ovarian
SN12C renal = tested on: SN12C renal
SNB-19 CNS = tested on: SNB-19 CNS
SNB-78 CNS = tested on: SNB-78 CNS
SW-620 colon = tested on: SW-620 colon
TK-10 renal = tested on: TK-10 renal
U251 CNS = tested on: U251 CNS
UACC-257 melanoma = tested on: UACC-257 melanoma
UACC-62 melanoma = tested on: UACC-62 melanoma
UO-31 renal = tested on: UO-31 renal
A498 renal = tested on: A498 renal
DMS 273 small cell lung = tested on: DMS 273 small cell lung
KM20L2 colon = tested on: KM20L2 colon
SNB-75 CNS = tested on: SNB-75 CNS
COLO 205 colon = tested on: COLO 205 colon
SR leukemia = tested on: SR leukemia

SMILES: CC1=C(C(=O)CC(=O)C(=O)Nc2cccc(C)c2C)Sc2ccccc2N1
- TGI (786-0 renal): > 100 µM
- TGI (A549 NSCLC): > 100 µM
- TGI (ACHN renal): > 100 µM
- TGI (CAKI-1 renal): > 100 µM
- TGI (CCRF-CEM leukemia): > 100 µM
- TGI (DLD-1 colon): > 100 µM
- TGI (DMS 114 small cell lung): > 100 µM
- TGI (EKVX NSCLC): > 100 µM
- TGI (HCC-2998 colon): > 100 µM
- TGI (HCT-116 colon): > 100 µM
- TGI (HCT-15 colon): > 100 µM
- TGI (HL-60(TB) leukemia): > 100 µM
- TGI (HOP-18 NSCLC): > 100 µM
- TGI (HOP-62 NSCLC): > 100 µM
- TGI (HOP-92 NSCLC): > 100 µM
- TGI (HT29 colon): > 100 µM
- TGI (IGROV1 ovarian): > 100 µM
- TGI (K-562 leukemia): > 100 µM
- TGI (KM12 colon): > 100 µM
- TGI (LOX IMVI melanoma): > 100 µM
- TGI (LXFL 529 NSCLC): > 100 µM
- TGI (M14 melanoma): > 100 µM
- TGI (M19-MEL melanoma): > 100 µM
- TGI (MALME-3M melanoma): > 100 µM
- TGI (MOLT-4 leukemia): > 100 µM
- TGI (NCI-H226 lung): > 100 µM
- TGI (NCI-H23 lung): > 100 µM
- TGI (NCI-H460 lung): > 100 µM
- TGI (NCI-H522 lung): > 100 µM
- TGI (OVCAR-3 ovarian): > 100 µM
- TGI (OVCAR-4 ovarian): > 100 µM
- TGI (OVCAR-5 ovarian): > 100 µM
- TGI (OVCAR-8 ovarian): > 100 µM
- TGI (RPMI-8226 leukemia): > 100 µM
- TGI (RXF 393 renal): > 100 µM
- TGI (SF-268 CNS): > 100 µM
- TGI (SF-295 CNS): > 100 µM
- TGI (SF-539 CNS): > 100 µM
- TGI (SK-MEL-2 melanoma): > 100 µM
- TGI (SK-MEL-28 melanoma): > 100 µM
- TGI (SK-MEL-5 melanoma): > 100 µM
- TGI (SK-OV-3 ovarian): > 100 µM
- TGI (SN12C renal): > 100 µM
- TGI (SNB-19 CNS): > 100 µM
- TGI (SNB-78 CNS): > 100 µM
- TGI (SW-620 colon): > 100 µM
- TGI (TK-10 renal): > 100 µM
- TGI (U251 CNS): > 100 µM
- TGI (UACC-257 melanoma): > 100 µM
- TGI (UACC-62 melanoma): > 100 µM
- TGI (UO-31 renal): > 100 µM

SMILES: O=C(/C=C/c1ccc(Cl)cc1)c1ccc(Cl)c(Cl)c1
- TGI (786-0 renal): > 100 µM
- TGI (A498 renal): > 100 µM
- TGI (A549 NSCLC): > 100 µM
- TGI (ACHN renal): > 100 µM
- TGI (CAKI-1 renal): 53.1 µM
- TGI (CCRF-CEM leukemia): 50.5 µM
- TGI (DLD-1 colon): > 100 µM
- TGI (DMS 114 small cell lung): > 100 µM
- TGI (DMS 273 small cell lung): > 100 µM
- TGI (EKVX NSCLC): 87.2 µM
- TGI (HCC-2998 colon): > 100 µM
- TGI (HCT-116 colon): > 100 µM
- TGI (HCT-15 colon): > 100 µM
- GI50 (HL-60(TB) leukemia): 15.9 µM
- TGI (HL-60(TB) leukemia): 45.8 µM
- TGI (HOP-62 NSCLC): 53.9 µM
- TGI (HT29 colon): > 100 µM
- TGI (IGROV1 ovarian): 79.9 µM
- TGI (K-562 leukemia): > 100 µM
- GI50 (KM12 colon): 12.2 µM
- TGI (KM12 colon): > 100 µM
- TGI (KM20L2 colon): > 100 µM
- TGI (LOX IMVI melanoma): > 100 µM
- TGI (LXFL 529 NSCLC): 92.5 µM
- TGI (M14 melanoma): > 100 µM
- TGI (M19-MEL melanoma): > 100 µM
- TGI (MALME-3M melanoma): 62.4 µM
- TGI (MOLT-4 leukemia): 69.6 µM
- TGI (NCI-H226 lung): 34.9 µM
- TGI (NCI-H23 lung): 30.2 µM
- TGI (NCI-H460 lung): > 100 µM
- TGI (NCI-H522 lung): 42.9 µM
- TGI (OVCAR-3 ovarian): 48.3 µM
- TGI (OVCAR-4 ovarian): > 100 µM
- TGI (OVCAR-8 ovarian): 47.9 µM
- TGI (RPMI-8226 leukemia): 8.88 µM
- TGI (RXF 393 renal): 72.2 µM
- TGI (SF-268 CNS): > 100 µM
- TGI (SF-295 CNS): > 100 µM
- TGI (SF-539 CNS): 56.9 µM
- TGI (SK-MEL-2 melanoma): 47.8 µM
- TGI (SK-MEL-28 melanoma): 66.7 µM
- TGI (SK-MEL-5 melanoma): 68.7 µM
- TGI (SK-OV-3 ovarian): 85.9 µM
- GI50 (SN12C renal): 48 µM
- TGI (SN12C renal): > 100 µM
- TGI (SNB-19 CNS): 75.5 µM
- TGI (SNB-75 CNS): 61.5 µM
- GI50 (SW-620 colon): 19.6 µM
- TGI (SW-620 colon): > 100 µM
- TGI (U251 CNS): 44.5 µM
- TGI (UACC-257 melanoma): 98.8 µM
- TGI (UACC-62 melanoma): 70 µM
- TGI (UO-31 renal): 80.9 µM

SMILES: CNS(=O)(=O)NNS(=O)(=O)c1cccc([N+](=O)[O-])c1
- TGI (786-0 renal): > 100 µM
- TGI (A549 NSCLC): > 100 µM
- TGI (ACHN renal): > 100 µM
- TGI (CAKI-1 renal): > 100 µM
- TGI (CCRF-CEM leukemia): > 100 µM
- TGI (COLO 205 colon): > 100 µM
- TGI (DLD-1 colon): > 100 µM
- TGI (DMS 114 small cell lung): > 100 µM
- TGI (DMS 273 small cell lung): > 100 µM
- TGI (EKVX NSCLC): > 100 µM
- TGI (HCC-2998 colon): > 100 µM
- TGI (HCT-116 colon): > 100 µM
- TGI (HCT-15 colon): > 100 µM
- TGI (HOP-62 NSCLC): > 100 µM
- TGI (HT29 colon): > 100 µM
- TGI (IGROV1 ovarian): > 100 µM
- TGI (K-562 leukemia): > 100 µM
- TGI (KM12 colon): > 100 µM
- TGI (KM20L2 colon): > 100 µM
- TGI (LOX IMVI melanoma): > 100 µM
- TGI (LXFL 529 NSCLC): > 100 µM
- TGI (M14 melanoma): > 100 µM
- TGI (M19-MEL melanoma): > 100 µM
- TGI (MALME-3M melanoma): > 100 µM
- TGI (MOLT-4 leukemia): > 100 µM
- TGI (NCI-H23 lung): > 100 µM
- TGI (NCI-H460 lung): > 100 µM
- TGI (NCI-H522 lung): > 100 µM
- TGI (OVCAR-3 ovarian): > 100 µM
- TGI (OVCAR-4 ovarian): > 100 µM
- TGI (OVCAR-8 ovarian): > 100 µM
- TGI (RPMI-8226 leukemia): > 100 µM
- TGI (RXF 393 renal): > 100 µM
- TGI (SF-295 CNS): > 100 µM
- TGI (SF-539 CNS): > 100 µM
- TGI (SK-MEL-2 melanoma): > 100 µM
- TGI (SK-MEL-5 melanoma): > 100 µM
- TGI (SN12C renal): > 100 µM
- TGI (SNB-19 CNS): > 100 µM
- TGI (SNB-75 CNS): > 100 µM
- TGI (SR leukemia): > 100 µM
- TGI (SW-620 colon): > 100 µM
- TGI (TK-10 renal): > 100 µM
- TGI (U251 CNS): > 100 µM
- TGI (UACC-257 melanoma): > 100 µM
- TGI (UACC-62 melanoma): > 100 µM
- TGI (UO-31 renal): > 100 µM
